US20050209231A1, “Compositions and methods for inducing cardiomyogenesis” (priority 2004, published 2005)

Tests used:
[1] = Toxicity of the cardiogenols (Table 1); assay type: cell-based, murine; details: mouse, P19CL6 cells
[2] = test system: P19CL6 cells; assay: MHC expression by immunostaining (anti-MHC antibody MF20), secondary assay for differentiation; assay type: cell-based, murine; details: for Optimal Activity: % cells positive for MHC after 7 days; for EC50: Mus musculus, P19CL6, inducing MHC expression
Procedure: MHC is one of the essential motor proteins responsible for cardiac muscle contractibility and was used as a secondary assay for differentiation. […] The P19CL6 cell line is a subclone of P19 EC cells with higher potential for cardiomyogenesis. See Habara-Ohkubo, Cell Struct. Funct., 21:101-110 (1996). MHC expression was determined in P19CL6 cells by immunostaining cells with anti-MHC antibody (MF20) (FIG. 2F).
The optimal activities of the cardiogenols in Table 1 are indicated by a series of "+" signs, as follows: ++: 10-25% cells are positive for MHC after 7 days; +++: 25-40% cells are positive for MHC after 7 days; ++++: 40-55% cells are positive for MHC after 7 days.

[3] = test system: R1 cells; assay: Cellular toxicity and cell death in R1 cells; assay type: cell-based
[4] = test system: R1 mouse ESCs; assay: Differentiation of undifferentiated R1 ESCs in monolayer into cardiac muscle (immunostaining of MHC, GATA-4, MEF2, Nkx2.5; beating); assay type: cell-based
Procedure: FIG. 2. Immunostaining of cardiac muscle markers in ESCs (A to E) and P19CL6 cells (F) treated with 0.25 μM cardiogenol C: (A) and (F) Myosin Heavy Chain (green); (B) GATA-4 (red); (C) MEF2 (red); (D) Nkx2.5 (red); and (E) Myosin Heavy Chain (green) and MEF2 (red). Cell nuclei were stained with DAPI (blue). Cells were fixed with 4% paraformaldehyde (Sigma) for 20 min. Cell staining was performed in PBS (Gibco) with 0.3% Triton X-100 and 6% horse serum. Primary antibodies were used at the following dilutions: myosin heavy chain (MHC) mouse monoclonal antibody MF20 (Developmental Studies Hybridoma Bank, 1:200), rabbit polyclonal anti-GATA-4 antibody (Santa Cruz Biotech, 1:300), rabbit anti-MEF2 antibody (Santa Cruz Biotech, 1:100) and goat anti-Nkx2.5 antibody (Santa Cruz Biotech, 1:100). Secondary antibodies were Cy2-conjugated anti-mouse (1:300), or Cy3-conjugated anti-rabbit or anti-goat antibodies (Jackson ImmunoResearch, 1:500). Cell nuclei were stained with DAPI (Roche). Images were taken with a Nikon Eclipes TE2000 microscope with 200-fold magnification. Double or triple-labeled images were assembled in Metamorph.
To confirm that these compounds are general cardiomyogenesis inducing agents, their effects on undifferentiated R1 mouse ESCs were analyzed. R1 mouse ESCs can be maintained in a pluripotent state with the addition of leukemia inhibitory factor (LIF) in the culture medium. The embryonic stem cell line R1 was cultured in gelatin-coated tissue culture dishes with Knockout DMEM with 15% ES serum replacement, 1 mM L-glutamine (from Gibco), 1% nonessential amino acids stock, 1% nucleosides stock, 0.1 mM […] (from Specialty Media) and 1000 units/mL of leukemia inhibitory factor (LIF, from Chemicon).
For differentiation, R1 cells were plated in a monolayer (10000 cells/well) in gelatin-coated 384-well or 96-well plates with 100 μL of DMEM with 10% FBS and 0.25 μM of compounds. LIF was not present during differentiation. After 7 days in culture (3 days with compounds and then, after changing the medium without additional compound added, another 4 days), the presence of beating cardiac muscle was visualized under a microscope. In addition to the expression of MHC (FIG. 2A), the cardiac specific gene, GATA-4, was detected by immunofluorescent staining using anti-GATA4 antibody (FIG. 2B).
Cardiogenol C has a […] aniline substituting at the pyrimidine C2 position and is very potent with an EC50 of 0.1 μM for inducing the differentiation of MHC positive cardiomyocytes from ESCs. […] See Boheler et al., Circ. Res., 91:189-201 (2002). […] This is in contrast to the current standard method of inducing cardiomyogenesis of ESCs by aggregation and formation of EBs, which results in only 5% of the cell population forming cardiomyocytes. See Boheler et al., (2002).
To further characterize the activity of Cardiogenol C, the expression of the cardiac muscle cell specific transcription factors MEF2 and Nkx2.5 was examined (FIGS. 2C and D). Members of the MEF2 family are essential for muscle development. See, e.g., Edmondson, et al., Development, 1251-1263 (1994); Lin et al., Science, 276:1404-1407 (1997). Nkx2.5 together with GATA-4 regulates the expression of multiple cardiac muscle specific genes (e.g., myosin light chain 2V, atria natriuretic factor, eHAND and homeodomain transcription factor HOP). See, e.g., Small et al., Cell, 110:725-735 (2002); Shin et al., Cell, 110:725-35 (2002). Moreover, the targeted interruption of Nkx2.5 gene is embryonic lethal and results in arrest of cardiac development. See, e.g., Lyons et al., Genes Dev., 9:1654-66 (1995). Approximately 90% of cardiogenol C treated cells stain positive for MEF2 and Nkx2.5, further confirming that ESCs are differentiated into cardiac muscle by cardiogenol C.

[5] = R1 cells, 0.25 μM compound for 3 days, then 4 days in medium without compound

| SMILES | EC50 [1] [nM] | Optimal Activity [2] | EC50 [2] [nM] | concentration showing significant cellular toxicity [3] | treated cells stain positive for MEF2 ([4]; ESCs) | treated cells stain positive for Nkx2.5 ([4]; ESCs) | EC50 ([4]; Mus musculus, Cardiomyocyte, read-out: EC50 for inducing the differentiation of MHC positive cardiomyocytes from ESCs) [nM] | beating areas (functional cardiac muscle) ([4]; R1 cells treated with compound) | cells positive for GATA-4 [4, 5] | cells stained positive for MHC [4, 5] |
| --- | --- | --- | --- | --- | --- | --- | --- | --- | --- | --- |
| OCCNc1ccnc(Nc2ccc(Nc3ccccc3)cc2)n1 [Cardiogenol A] | 5000 | ++ (10-25% cells are positive for MHC after 7 days) | 1000 |  |  |  |  |  |  |  |
| OCCNc1ccnc(Nc2ccc(Oc3ccccc3)cc2)n1 [Cardiogenol B] | 5000 | +++ (25-40% cells are positive for MHC after 7 days) | 500 |  |  |  |  |  |  |  |
| COc1ccc(Nc2nccc(NCCO)n2)cc1 [Cardiogenol C] | 25000 | ++++ (40-55% cells are positive for MHC after 7 days) | 100 | greater than 25 μM | Approximately 90% | Approximately 90% | 100 | many beating areas | more than 90% | more than 50% |
| OCCNc1ccnc(Nc2ccc(/C=C/c3ccccc3)cc2)n1 [Cardiogenol D] | 2500 | ++++ (40-55% cells are positive for MHC after 7 days) | 100 |  |  |  |  |  |  |  |
